What was measured:
Assay type in all cases: in vivo
Helicotylenchus species = experiment: Nematicidal activity, sugar cane field, in furrow tank mix application; conditions: fipronil 200, abamectin 90, mixture 200 + 90 g a.i./ha; for Nematode activity in the soil 90 days after planting: 1000 ml soil incl. roots, in furrow at planting, blank 317; for Efficacy/mortality: 90 days after planting, in furrow
Method: (§1) Fipronil was used in the commercially available formulation Regent® 800 WG, containing Fipronil in a concentration of 800 g/kg. Abamectin was used in the commercially available EC formulation Vertimec® 18 CE, containing Abamectin in a concentration of 18 g/I.
(§2) Tank mixes of the commercial formulations of fipronil and abamectin diluted with water were prepared in a ratio such that the application rates identified in the tables below were achieved when 100 liter of tank mix formulation were applied to sugar cane in furrow.
(§3) The tank mix formulation was applied in furrow spraying over the sugar cane stems (cuttings/segments, 1 to 3 nodes segments) at the planting time.
(§4) The synergistic effect was determined by Limpel's formula. Synergism was evident if the observed effect for the mixture is greater than the expected calculated effect:
(§5) E=Expected activity of the mixture X=activity of compound X Y=activity of compound Y
(§6) Treatments were done mid of June 2009 in Brazil in sugar cane fields which had not been pretreated with nematicides, that is, in fields showing an average nematode population.
(§7) Treatments were done only at the time of planting, that is, no further in furrow treatment was conducted. Each treatment experiment was replicated 6 times.
(§8) Nematicidal activity for Helicotylenchus and Paratrichodorus species was evaluated before the spraying for different portions of 1000 ml of soils collected at different sites of the field (“blank” in Table 1).
(§9) 90 days after spraying the tank mix formulation, different portions of 1000 ml of soil (including roots) were collected at different sites of the field, and the soil and the root knots were evaluated for nematicidal activity of Helicotylenchus and Paratrichodorus species and efficacy/mortality, respectively.
(§10) Synergism was evident if the % observed mortality for the mixture was greater than the % expected mortality.

Paratrichodorus species = experiment: as above; conditions: fipronil 200, abamectin 90, mixture 200 + 90 g a.i./ha; for Nematode activity in the soil 90 days after planting: 1000 ml soil incl. roots, in furrow at planting, blank 133; for Efficacy/mortality: 90 days after planting, in furrow
Method: as §1, §2, §3, §4, §5, §6, §7, §8, §9, §10

sugar cane = experiment: Plant health activity: tillering of sugar cane; conditions: fipronil 200, abamectin 90, mixture 200 + 90 g a.i./ha; for No. of tillers 180 days after planting: average per 1.0 linear meter, in furrow at planting, blank 19.75; for % of increase: tillers 180 days after planting vs blank
Method: as §1, §2, §3, §4, §5
The tank mix formulation of the mixture of fipronil and abamectin was prepared as described above for testing of nematicidal activity. The tank mix formulation was applied to sugar cane as described above for testing of nematicidal activity.
Tillering was evaluated before the application of the tank mix (“blank” in Table 2) and 180 days after planting/application the tank mix formulation. Each replication (plot) was evaluated at 3 different randomized points, each point consisting of 1.0 linear meter of the central rows of the plot. Evaluation was done for 4 replications (plots).

[1] = tested on: sugar cane (variety SP80-1842); experiment: Yield increase of sugar cane; conditions: fipronil 200, abamectin 126, mixture 200 + 126 g a.i./ha; for Yield: in furrow at planting, untreated 102.81; for % increase of yield: vs untreated

Molecule | Nematode activity in the soil 90 days after planting (Helicotylenchus species) | Efficacy/mortality (Helicotylenchus species) | Nematode activity in the soil 90 days after planting (Paratrichodorus species) | Efficacy/mortality (Paratrichodorus species) | No. of tillers 180 days after planting (sugar cane) | % of increase (sugar cane) | Yield [1] | % increase of yield [1]
Abamectin | 117 | 63% | 133 | 0% | 21.5 | 8.9% | 106.33 tons/ha | 3.4%
N#Cc1nn(-c2c(Cl)cc(C(F)(F)F)cc2Cl)c(N)c1[S+]([O-])C(F)(F)F (stereo not shown) [Fipronil] | 367 | 0% | 100 | 25% | 20.25 | 2.5% | 106.31 tons/ha | 3.4%

Source: patent US20130096077A1, “Nematicidal Mixtures for Use in Sugar Cane” (priority 2010, published 2013)
